Test results as given in patent US12310973B2, “Administration and dosage of diaminophenothiazines” (WisTa Laboratories Ltd., priority 2016, dated 2025).
Values joined by “and” are separate entries in the source; they are usually repeats but may differ in a detail not shown here. Equal entries are not always repeated.

Test system: mild to moderate AD patients
Test: Phase 3 trial in mild to moderate AD: ADCS-ADL change from baseline
Type: in vivo, human
Source text: The co-primary efficacy outcomes were change from baseline in 11-item Alzheimer's Disease Assessment Scale—cognitive subscale (ADAS-cog) and the 23-item Alzheimer's Disease Cooperative Study Activities of Daily Living (ADCS-ADL). Magnetic resonance imaging (MRI) volumetry was chosen as the principal secondary outcome to support a potential effect on the rate of brain atrophy (Fox et al., 1997; Ridha et al., 2008). Change in Lateral Ventricular Volume (LVV), as measured by the Ventricular Boundary Shift Integral (VBSI), (Salloway et al., 2014) was chosen as the principal measure as it provides high-contrast boundaries for measurement and is less affected by motion artefacts than whole brain or smaller structures. Key supportive topographical measures (temporo-parietal (TPV) and hippocampal volume (HV)) are also reported.
Patients were recruited at 115 sites across 16 countries between January 2013 and August 2014. Enrolment of approximately 833 patients was targeted, with 891 patients actually recruited, in order to obtain data on approximately 500 patients completing the study, assuming a 30-40% drop-out rate. […] Adult caregiver(s) were required to participate. Concomitant use of AChEIs and/or memantine was permitted, provided the patient had been taking the medication(s) for […], with no changes to the dosage for 26 weeks prior to screening. Concomitant use of serotonergic antidepressant medication was permitted, but patients were monitored closely using a targeted rating scale derived from 4 published diagnostic criteria (Alusik et al., 2014) due to a theoretical potential for serotonin syndrome (Ramsay et al., 2007). […] Because MT^+ in high doses can induce methaemoglobinaemia, subjects with glucose-6-phosphate dehydrogenase deficiency or who were otherwise at haematological risk were excluded. Other inclusion/exclusion criteria are provided in the Supplementary Materials.
Patients were randomised at baseline to LMTM 75 mg b.i.d. or 125 mg b.i.d. (expressed as MT base equivalent) or control in a 3:3:4 ratio. The randomisation was stratified according to geographical region (3 levels: North America, Europe, rest of world), use of AD-labelled co-medications (2 levels, using or not using) and severity (2 levels, moderate MMSE 14-19 inclusive, mild MMSE 20-26 inclusive). Patients in the control arm received a dose of 4 mg b.i.d. to maintain blinding.
ADAS-cog and ADCS-ADL assessments were performed at baseline and every 13 weeks thereafter, with change at 65 weeks (the final on-treatment visit) the primary efficacy measures. These were repeated at the final off-treatment follow-up visit at Week 69. Secondary efficacy measures included Clinical Global Impression of Change (ADCS-CGIC, administered by an independent rater); MMSE, administered on screening and at Weeks 26, 52, 65 and 69. Brain MRI scans were performed at baseline/screening and every 13 weeks using a standardized protocol including volumetric 3D T1-weighted data consistent with ADNI recommendations, FLAIR, T2* Gradient Echo and T2-weighted sequences. Diffusion-Weighted Imaging was also available at screening in order to exclude patients with co-existing pathology that would lead to a diagnosis other than probable AD. Each site was first qualified ensuring standardised acquisition protocol, patient handling and data management. MRI data were centrally collected by Imaging Corelab (Bioclinica). Data were centrally reviewed by RadMD for eligibility and safety (Amyloid Related Imaging Abnormalities, or ARIA monitoring) on an on-going basis. Volumetric 3DT1 data were also reviewed centrally in order to measure (using a boundary shift integral (BSI) technique; Salloway et al., 2014) change in LVV as principal secondary outcome measure, and as exploratory endpoints temporo-parietal volume (TPV), whole brain volume (WBV) and hippocampal volume (HV, estimated as the mean of left and right) (Wischik et al., 2016). […]

## CN(C)c1ccc2c(c1)Sc1cc(N(C)C)ccc1N2 [LMTM, leuco-methythioninium bis(hydromethanesulfonate)]
75 mg b.i.d. monotherapy, 65 weeks
  ADCS-ADL effect size as % of the decline over 65 weeks seen in the control arm: 82%±23%
125 mg b.i.d. monotherapy, 65 weeks
  ADCS-ADL effect size as % of the decline over 65 weeks seen in the control arm: 88%±23%
Table 2 primary analysis, 65 weeks, covariates additive, control arm (LMTM 4 mg b.i.d.)
  ADCS-ADL, Estimate (change from baseline): −8.22 ADCS-ADL units
Table 2 primary analysis, 65 weeks, 75 mg b.i.d.
  ADCS-ADL, Estimate (difference with respect to control): −0.93 ADCS-ADL units
Table 2 primary analysis, 65 weeks, 125 mg b.i.d.
  ADCS-ADL, Estimate (difference with respect to control): −0.34 ADCS-ADL units
Table 2 primary analysis, 65 weeks, patients not using AChEI/Mem (additive covariate)
  ADCS-ADL, Estimate (mean additive treatment benefit): 2.00 ADCS-ADL units
Table 3, AChEI/Mem as interaction term, 65 weeks, 75 mg b.i.d. + AChEI/Mem
  ADCS-ADL, Estimate (difference vs control): −2.16 ADCS-ADL units
Table 3, AChEI/Mem as interaction term, 65 weeks, 75 mg b.i.d. monotherapy
  ADCS-ADL, Estimate (difference vs control): 6.48 ADCS-ADL units
Table 3, AChEI/Mem as interaction term, 65 weeks, 125 mg b.i.d. + AChEI/Mem
  ADCS-ADL, Estimate (difference vs control): −1.62 ADCS-ADL units
Table 3, AChEI/Mem as interaction term, 65 weeks, 125 mg b.i.d. monotherapy
  ADCS-ADL, Estimate (difference vs control): 6.92 ADCS-ADL units and 6.93 ADCS-ADL units
Table 3, AChEI/Mem as interaction term, 65 weeks, control arm (4 mg b.i.d.)
  ADCS-ADL, Estimate (change from baseline): −7.92 ADCS-ADL units
Table 4 post-hoc, control-arm subjects, 4 mg b.i.d. + AChEI/Mem
  ADCS-ADL, Estimate (change from baseline): −8.90 ADCS-ADL units
Table 4 post-hoc, control-arm subjects, 4 mg b.i.d. monotherapy vs 4 mg b.i.d. + AChEI/Mem
  ADCS-ADL, Estimate (difference): 7.19 ADCS-ADL units
Table 7, mild AD, 4 mg b.i.d. + AChEI/Mem (control-arm subjects)
  ADCS-ADL, Estimate (change from baseline): −3.86 ADCS-ADL units
Table 7, mild AD, 4 mg b.i.d. alone vs 4 mg b.i.d. + AChEI/Mem
  ADCS-ADL, Estimate (difference): 5.20 ADCS-ADL units
Table 7, mild AD, 75 mg b.i.d. alone vs control arm as randomised
  ADCS-ADL, Estimate (difference): 4.65 ADCS-ADL units
Table 7, mild AD, 125 mg b.i.d. alone vs control arm as randomised
  ADCS-ADL, Estimate (difference): 7.77 ADCS-ADL units
Table 7, mild AD, control arm as randomised (4 mg b.i.d.)
  ADCS-ADL, Estimate (change from baseline): −3.20 ADCS-ADL units
Table 7, moderate AD, 4 mg b.i.d. + AChEI/Mem (control-arm subjects)
  ADCS-ADL, Estimate (change from baseline): −11.91 ADCS-ADL units
Table 7, moderate AD, 4 mg b.i.d. alone vs 4 mg b.i.d. + AChEI/Mem
  ADCS-ADL, Estimate (difference): 7.70 ADCS-ADL units
Table 7, moderate AD, 75 mg b.i.d. alone vs control arm as randomised
  ADCS-ADL, Estimate (difference): 6.89 ADCS-ADL units
Table 7, moderate AD, 125 mg b.i.d. alone vs control arm as randomised
  ADCS-ADL, Estimate (difference): 5.53 ADCS-ADL units
Table 7, moderate AD, control arm as randomised (4 mg b.i.d.)
  ADCS-ADL, Estimate (change from baseline): −10.93 ADCS-ADL units
Control arm (LMTM 4 mg b.i.d.), 12 months
  ADCS-ADL decline at 12 months (mean±se): −6.51±0.63
Mild patients, LMTM monotherapy
  Mean treatment benefit relative to control on ADCS-ADL: 156%±39%
